Data: patent US20130225597A1, “USE OF PHOSPHODIESTERASE INHIBITOR TO ENHANCE POST-SURGICAL ERECTION IN MEN UNDERGOING RADICAL PROSTATECTOMY” (University of Medicine and Dentistry of New Jersey, priority 2010, published 2013)
Counter-ions that a name gives are not always drawn.

Key:
[1] = system: PC12 neuronal cell; assay: Neuronal survival of hydrogen peroxide treated PC-12 cells; assay type: cell-based; details: 1 mM H2O2 for 1 hour, 24 hours incubation, viable cells counted
Procedure: Neuronal Survival Experiments. For survival experiments, PC12 neuronal cell were seeded in 6-well plates at a density of 1×10^5 per well in Dulbecco's modified Eagle's medium (DMEM) supplemented with 1% fetal bovine serum (FBS) and 100 ng/ml nerve growth factor (NGF), herein after (“Media”), for 3 days. Media was changed every 3 days. Cells were treated in the presence or absence of 1 mM hydrogen peroxide (H2O2) for 1 hour in the presence or absence of either sildenafil Citrate, vardenafil, or tardalafil at 0.1-fold physiologic dose (0.5 μM, 0.3 μM and 0.4 μM, respectively), physiologic dose (5 μM, 3 μM and 4 μM, respectively) and 10-fold physiologic dose (50 μM, 30 μM and 40 μM, respectively). Treated cells were incubated for 24 hours at 37° C. Viable cells were detached and counted using an automated counter.

[2] = system: post-radical prostatectomy erection dysfunction; assay: Clinical study: sildenafil citrate at the operative site in robot-assisted radical prostatectomy, potency recovery; assay type: in vivo, humans; details: 147 men
Procedure: Clinical Studies. For effective study in humans, 147 men that underwent robot-assisted radical prostatectomy were treated with sildenafil citrate at the operative site. Potency was reported in 24.2%, 84.2% and 93.3% of the subjects at three, six, and twelve months post-operative, respectively.

[3] = system: spinal motor and non-motor neurons; details: cited from earlier work

## COc1ccc(C2CNC(=O)C2)cc1OC1CCCC1 (centres unmarked) [rolipram]
[1]
  protection against H2O2-induced cell death (neuronal viability): significant protection

## CCCc1nn(C)c2c(=O)[nH]c(-c3cc(S(=O)(=O)N4CCN(C)CC4)ccc3OCC)nc12 [sildenafil citrate]
[2]; six months post-operative
  Potency reported, % of subjects: 84.2%
[2]; three months post-operative
  Potency reported, % of subjects: 24.2%
[2]; twelve months post-operative
  Potency reported, % of subjects: 93.3%

## CCCOc1ccccc1-c1nc2nn[nH]c2c(=O)[nH]1 [zaprinas]
[3]
  protection against acute Reactive Oxygen Species-induced neurotoxicity: protect
